Experimental data published in patent publication US8461328B2, “Tricyclic heterocyclic compounds, compositions and methods of use thereof” (Genentech, Inc., priority 2010, dated 2013).
pKi: −log10 of the molar value.

Legend:
Format in all cases: biochemical
JAK2 = target: T1, JAK2 (Homo sapiens, UniProt O60674); assay: JAK2 inhibition (Table 4); conditions: read-out: JAK2 Ki
T1 construct: made in house; host or cells: SF9 insect cells (baculovirus)

JAK1 = target: T2, JAK1 (Homo sapiens, UniProt P23458); assay: JAK1 inhibition (Table 4); conditions: read-out: JAK1 Ki
T2 construct: made in house; host or cells: SF9 insect cells (baculovirus)
T2 sequence (P23458 852-1154): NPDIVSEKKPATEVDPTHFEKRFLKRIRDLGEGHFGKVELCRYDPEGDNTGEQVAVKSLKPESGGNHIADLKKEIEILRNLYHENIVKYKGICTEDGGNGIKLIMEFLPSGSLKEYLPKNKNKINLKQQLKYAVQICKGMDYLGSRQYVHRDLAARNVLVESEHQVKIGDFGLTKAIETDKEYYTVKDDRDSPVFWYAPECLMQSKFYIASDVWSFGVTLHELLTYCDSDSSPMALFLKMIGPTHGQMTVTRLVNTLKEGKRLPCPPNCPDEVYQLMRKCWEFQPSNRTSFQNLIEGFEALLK

JAK3 = target: T3, JAK3 (Homo sapiens, UniProt P52333); assay: JAK3 inhibition (Table 4); conditions: read-out: JAK3 Ki
T3 construct: made in house; host or cells: SF9 insect cells (baculovirus)
T3 sequence (P52333 783-1124): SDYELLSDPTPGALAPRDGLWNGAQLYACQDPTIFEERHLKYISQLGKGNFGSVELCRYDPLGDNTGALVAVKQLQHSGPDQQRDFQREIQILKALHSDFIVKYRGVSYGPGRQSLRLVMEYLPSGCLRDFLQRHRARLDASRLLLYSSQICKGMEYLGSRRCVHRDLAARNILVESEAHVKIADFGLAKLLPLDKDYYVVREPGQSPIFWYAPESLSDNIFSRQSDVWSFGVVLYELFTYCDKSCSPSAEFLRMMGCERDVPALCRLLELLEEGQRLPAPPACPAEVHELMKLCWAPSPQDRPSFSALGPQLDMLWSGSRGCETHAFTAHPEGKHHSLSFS

TYK2 = target: T4, TYK2 (Homo sapiens, UniProt P29597); assay: TYK2 inhibition (Table 4)
T4 construct: made in house; host or cells: SF9 insect cells (baculovirus)
T4 sequence (P29597 873-1187): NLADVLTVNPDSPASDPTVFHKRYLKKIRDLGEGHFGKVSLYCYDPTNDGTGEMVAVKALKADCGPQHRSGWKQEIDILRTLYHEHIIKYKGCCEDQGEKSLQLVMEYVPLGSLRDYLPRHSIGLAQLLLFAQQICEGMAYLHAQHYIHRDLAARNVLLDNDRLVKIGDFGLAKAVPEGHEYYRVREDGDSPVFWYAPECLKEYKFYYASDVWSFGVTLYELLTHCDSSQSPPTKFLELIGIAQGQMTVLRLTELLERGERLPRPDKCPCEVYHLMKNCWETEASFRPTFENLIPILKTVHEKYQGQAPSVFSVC

T1 sequence (O60674 812-1132): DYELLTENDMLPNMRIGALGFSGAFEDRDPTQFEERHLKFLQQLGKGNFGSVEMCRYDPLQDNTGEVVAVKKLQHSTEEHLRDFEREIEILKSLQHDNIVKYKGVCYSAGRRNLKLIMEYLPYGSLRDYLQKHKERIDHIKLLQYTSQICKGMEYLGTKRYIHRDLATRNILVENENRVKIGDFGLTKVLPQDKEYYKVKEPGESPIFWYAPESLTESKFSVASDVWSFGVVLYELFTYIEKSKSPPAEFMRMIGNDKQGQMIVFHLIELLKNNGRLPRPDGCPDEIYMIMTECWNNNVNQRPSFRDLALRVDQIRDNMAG

Row | SMILES | pKi (JAK2) | pKi (JAK1) | pKi (JAK3) | pKi (TYK2)
1 | CN(CCO)C(=O)Cc1nc2cnc3[nH]ccc3c2n1C1CCCOC1 (racemic) [Example 969, N-(2-Hydroxy-ethyl)-N-methyl-2-[1-(tetrahydro-pyran-3-yl)-1,6-dihydro-1,3,5,6-tetraaza-as-indacen-2-yl]-acetamide] | 5.96 | 6.77 | 6.29 | 5.94
2 | CN(C)C(=O)CNC(=O)Cc1nc2cnc3[nH]ccc3c2n1C1CCCOC1 (racemic) [Example 970, N-Dimethylcarbamoylmethyl-2-[1-(tetrahydro-pyran-3-yl)-1,6-dihydro-1,3,5,6-tetraaza-as-indacen-2-yl]-acetamide] | 6.91 | 7.46 | 6.69 | 6.61
3 | O=C(Cc1nc2cnc3[nH]ccc3c2n1C1CCCOC1)NC1CCC(F)(F)CC1 (racemic) [Example 972, N-(4,4-Difluoro-cyclohexyl)-2-[1-(tetrahydro-pyran-3-yl)-1,6-dihydro-1,3,5,6-tetraaza-as-indacen-2-yl]-acetamide] | 6.95 | 7.56 | 7.05 | 6.71
4 | O=C(Cc1nc2cnc3[nH]ccc3c2n1C1CCCOC1)NCC(F)F (racemic) [Example 973, N-(2,2-Difluoro-ethyl)-2-[1-(tetrahydro-pyran-3-yl)-1,6-dihydro-1,3,5,6-tetraaza-as-indacen-2-yl]-acetamide] | 6.82 | 7.64 | 6.89 | 6.67
5 | O=C(Cc1nc2cnc3[nH]ccc3c2n1C1CCCOC1)NC1CCCC1 (racemic) [Example 974, N-Cyclopentyl-2-[1-(tetrahydro-pyran-3-yl)-1,6-dihydro-1,3,5,6-tetraaza-as-indacen-2-yl]-acetamide] | 6.96 | 7.59 | 7.13 | 6.71
6 | O=C(Cc1nc2cnc3[nH]ccc3c2n1C1CCCOC1)NCCn1ccnc1 (racemic) [Example 975, N-(2-Imidazol-1-yl-ethyl)-2-[1-(tetrahydro-pyran-3-yl)-1,6-dihydro-1,3,5,6-tetraaza-as-indacen-2-yl]-acetamide] | 6.69 | 7.36 | 6.68 | 6.39
7 | O=C(Cc1nc2cnc3[nH]ccc3c2n1C1CCCOC1)N1CCN(CCO)CC1 (racemic) [Example 976, 1-[4-(2-Hydroxy-ethyl)-piperazin-1-yl]-2-[1-(tetrahydro-pyran-3-yl)-1,6-dihydro-1,3,5,6-tetraaza-as-indacen-2-yl]-ethanone] | 6.39 | 7.49 | 6.68 | 6.52
8 | O=C(Cc1nc2cnc3[nH]ccc3c2n1C1CCCOC1)NC1CCOCC1 (racemic) [Example 983, N-(Tetrahydro-pyran-4-yl)-2-[1-(tetrahydro-pyran-3-yl)-1,6-dihydro-1,3,5,6-tetraaza-as-indacen-2-yl]-acetamide] | 6.80 | 7.42 | 7.00 | 6.52
9 | Cc1nc2cnc3[nH]ccc3c2n1C1CCCCNC1 (racemic) [Example 987, 1-Azepan-3-yl-2-methyl-1,6-dihydro-1,3,5,6-tetraaza-as-indacene] | 6.68 | 7.40 | 6.19 | 6.57
10 | N#CCC(=O)N1CCCCC(n2cnc3cnc4[nH]ccc4c32)C1 (racemic) [Example 988, 3-Oxo-3-[3-(6H-1,3,5,6-tetraaza-as-indacen-1-yl)-azepan-1-yl]-propionitrile] | 8.21 | 8.38 | 8.03 | 7.54
11 | N#CCCN1CCCCC(n2cnc3cnc4[nH]ccc4c32)C1 (racemic) [Example 989, 3-[3-(6H-1,3,5,6-Tetraaza-as-indacen-1-yl)-azepan-1-yl]-propionitrile] | 7.84 | 7.96 | 7.40 | 7.38
12 | Cc1nc2cnc3[nH]ccc3c2n1C1CCc2nc[nH]c2C1 (racemic) [Example 990, 2-Methyl-1-(4,5,6,7-tetrahydro-3H-benzoimidazol-5-yl)-1,6-dihydro-1,3,5,6-tetraaza-as-indacene] | 6.69 | 7.07 | 7.04 | 6.49
13 | N#CCCn1cc2c(n1)CCC(n1cnc3cnc4[nH]ccc4c31)C2 (racemic) [Example 991, 3-[5-(6H-1,3,5,6-Tetraaza-as-indacen-1-yl)-4,5,6,7-tetrahydro-indazol-2-yl]-propionitrile] | 7.93 | 8.03 | 6.96 | 7.23
14 | C[C@@H](O)c1nc2cnc3[nH]ccc3c2n1[C@H]1CC[C@@H](N2CCC(C#N)CC2)CC1 (relative stereo) [Example 611, Cis 1-{4-[2-(1-hydroxy-ethyl)-6H-1,2,3,5,6-tetraaza-as-indacen-1-yl]-cyclohexyl}-piperidine-4-carbonitrile] | 6.85 | 8.16 | 6.86 | 7.30

Other lines, results leading:

Row | pKi (JAK2) | pKi (JAK1) | pKi (JAK3) | pKi (TYK2) | SMILES
15 | 6.11 | 6.88 | 6.31 | 5.98 | O=C(Cc1nc2cnc3[nH]ccc3c2n1C1CCCOC1)N1CCC1 (racemic) [Example 967, 1-Azetidin-1-yl-2-[1-(tetrahydro-pyran-3-yl)-1,6-dihydro-1,3,5,6-tetraaza-as-indacen-2-yl]-ethanone]
16 | 6.05 | 6.88 | 6.44 | 5.93 | O=C(Cc1nc2cnc3[nH]ccc3c2n1C1CCCOC1)N1CCCC1 (racemic) [Example 968, 1-Pyrrolidin-1-yl-2-[1-(tetrahydro-pyran-3-yl)-1,6-dihydro-1,3,5,6-tetraaza-as-indacen-2-yl]-ethanone]
17 | 6.25 | 6.94 | 6.45 | 6.10 | O=C(Cc1nc2cnc3[nH]ccc3c2n1C1CCCOC1)N1CC(F)(F)C1 (racemic) [Example 971, 1-(3,3-Difluoro-azetidin-1-yl)-2-[1-(tetrahydro-pyran-3-yl)-1,6-dihydro-1,3,5,6-tetraaza-as-indacen-2-yl]-ethanone]
18 | 6.44 | 7.55 | 6.71 | 6.68 | CC(=O)N1CCN(C(=O)Cc2nc3cnc4[nH]ccc4c3n2C2CCCOC2)CC1 (racemic) [Example 977, 1-(4-Acetyl-piperazin-1-yl)-2-[1-(tetrahydro-pyran-3-yl)-1,6-dihydro-1,3,5,6-tetraaza-as-indacen-2-yl]-ethanone]
19 | 6.52 | 7.76 | 6.91 | 6.80 | O=C(Cc1nc2cnc3[nH]ccc3c2n1C1CCCOC1)N1CCC(F)(F)CC1 (racemic) [Example 978, 1-(4,4-Difluoro-piperidin-1-yl)-2-[1-(tetrahydro-pyran-3-yl)-1,6-dihydro-1,3,5,6-tetraaza-as-indacen-2-yl]-ethanone]
20 | 6.62 | 7.81 | 6.90 | 6.95 | O=C(Cc1nc2cnc3[nH]ccc3c2n1C1CCCOC1)N1CCS(=O)(=O)CC1 (racemic) [Example 979, 1-(1,1-Dioxo-1$1%6&-thiomorpholin-4-yl)-2-[1-(tetrahydro-pyran-3-yl)-1,6-dihydro-1,3,5,6-tetraaza-as-indacen-2-yl]-ethanone]
21 | 6.30 | 7.10 | 6.52 | 6.96 | O=C(Cc1nc2cnc3[nH]ccc3c2n1C1CCCOC1)N1CCCOCC1 (racemic) [Example 980, 1-[1,4]Oxazepan-4-yl-2-[1-(tetrahydro-pyran-3-yl)-1,6-dihydro-1,3,5,6-tetraaza-as-indacen-2-yl]-ethanone]
22 | 6.75 | 7.18 | 6.79 | 6.42 | CN1CCC(NC(=O)Cc2nc3cnc4[nH]ccc4c3n2C2CCCOC2)CC1 (racemic) [Example 981, N-(1-Methyl-piperidin-4-yl)-2-[1-(tetrahydro-pyran-3-yl)-1,6-dihydro-1,3,5,6-tetraaza-as-indacen-2-yl]-acetamide]
23 | 6.51 | 7.46 | 6.80 | 6.56 | O=C(Cc1nc2cnc3[nH]ccc3c2n1C1CCCOC1)N1CCCC(O)C1 (racemic) [Example 982, 1-(3-Hydroxy-piperidin-1-yl)-2-[1-(tetrahydro-pyran-3-yl)-1,6-dihydro-1,3,5,6-tetraaza-as-indacen-2-yl]-ethanone]
24 | 6.53 | 7.75 | 6.76 | 6.60 | O=C(Cc1nc2cnc3[nH]ccc3c2n1C1CCCOC1)N1CCC(CO)CC1 (racemic) [Example 984, 1-(4-Hydroxymethyl-piperidin-1-yl)-2-[1-(tetrahydro-pyran-3-yl)-1,6-dihydro-1,3,5,6-tetraaza-as-indacen-2-yl]-ethanone]
25 | 6.44 | 7.71 | 6.84 | 6.76 | O=C(Cc1nc2cnc3[nH]ccc3c2n1C1CCCOC1)N1CCSCC1 (racemic) [Example 985, 2-[1-(Tetrahydro-pyran-3-yl)-1,6-dihydro-1,3,5,6-tetraaza-as-indacen-2-yl]-1-thiomorpholin-4-yl-ethanone]
26 | 6.50 | 7.76 | 6.77 | 6.73 | O=C(Cc1nc2cnc3[nH]ccc3c2n1C1CCCOC1)N1CCC(O)CC1 (racemic) [Example 986, 1-(4-Hydroxy-piperidin-1-yl)-2-[1-(tetrahydro-pyran-3-yl)-1,6-dihydro-1,3,5,6-tetraaza-as-indacen-2-yl]-ethanone]
